Assay results published in patent publication US8921642B2, “Conditional-stop dimerizable caspase transgenic animals” (Massachusetts Eye and Ear Infirmary, priority 2008, dated 2014).

Columns and labels:
[1] = biological target: FKBPs with a single amino acid substitution: Phe36Val (Homo sapiens, UniProt P62942, F37V); settings: cited from earlier work
native FKBPs = native FKBPs (Homo sapiens, UniProt P62942); settings: cited from earlier work
[2] = test system: cells co-transfected with Cre and dimerizable caspase-3 transgene; assay: LIVE/DEAD analysis of co-transfected cells versus original pSHMFv2Caspase3E; format: cell-based; settings: LIVE/DEAD analysis in the presence of AP20187
Description: To determine the extent of cell ablation, the co-transfected cells were compared with the original pSHMFv2Caspase3E in the presence of AP20187 using LIVE/DEAD analysis (Invitrogen). The number of dying cells and the decrease in cell viability was almost same in the co-transfected group as compared to the original plasmid transfection group (FIGS. 6B-6C).

auditory hair cells = assay: in vivo hair cell ablation and hearing loss in Brn3c-Cre double transgenic mice; parameters: species or system mouse
Description: Auditory hair cells are the mechanosensory channel that transduce sound waves to action potentials. Since mammalian hair cells cannot spontaneously regenerate once lost, regenerative medicine for hearing loss would be of great importance, and it has been difficult to establish a reproducible model for ablation of hair cells. The transgenic mice described herein (line D) were mated with a hair cell-specific, Brn3c-Cre mouse from Doug Vetter (Xiang et al., Proc. Natl. Acad. Sci. U.S.A. 94(17):9445-50 (1997); Sage et al., Proc. Nat. Acad. Sci. 103(19):7345-7350 (2006)).
In vivo experiments were also performed. Animals at 6-8 weeks of age were administered AP20187 (10 mg/kg ip) and analyzed six days later. […] Approximately 35˜40% of inner hair cells and 15% of outer hair cells were lost, as judged by Pv3 staining.

[3] = test system: beta cells of the pancreas; assay: in vivo beta cell ablation in Ins-Cre double transgenic mice (IPGTT, GTT); parameters: species or system mouse
Protocol: Diabetes is cause by loss of insulin producing beta cells in the pancreas. These cells cannot be replaced by known techniques. A model for impaired glucose tolerance was constructed by crossing the transgenic mouse (line B) described herein with an Ins-Cre mouse (Jackson Labs). […] This model has the characteristics of a pre-diabetic mouse.
The FK506 analogue AP20187 was administered by intraperitoneal (IP) injection. β-cell death was monitored in the animals by intraperitoneal glucose tolerance testing (IPGTT) using standard methodology.
The effect on blood glucose levels was also evaluated using a standard glucose tolerance test (GTT). 30 minutes after a glucose challenge, a blood sample was obtained from the tail vein and a measurement of blood glucose was obtained with a glucose monitor.

[4] = test system: cells cotransfected with pCAN-Cre and pCMVflox (dimerizable caspase); assay: MTT assay of cell viability after dimerizer treatment of transfected cells; format: cell-based; settings: treated 24 hours after transfection, read 48 hours later; only in the group where both Cre-recombinase and transgene were transfected
Protocol: To confirm that the system works, the effect of the dimerizer, AP20187, was examined in vitro on cells that were transfected with either pCAN-Cre or pCMVflox, or cotransfected with both. 24 hours after transfection, cells were treated with the dimerizer AP20187, and 48 hours later cell-viability/dying cells were examined using a standard MTT (3-(4,5-dimethylthiazol-2-yl)-2,5-diphenyltetrazolium bromide) assay.

[5] = test system: inner and outer hair cells; assay: organ of Corti explant culture of double transgenics in medium containing AP20187; format: cell-based, mouse; settings: within 24 hours of incubation
[6] = test system: Rosa26-CreER (Cre recombinase); assay: tamoxifen-induced Cre recombination in cells from Rosa26-CreER double transgenic mice; format: cell-based, mouse; settings: cells from line F x Rosa26-CreER double transgenic mice, in the presence of tamoxifen
Description: To provide a model for ready confirmation of the function of the conditional-stop dimerizable caspase transgene, the transgenic mice described herein (line F) were crossed with Rosa26-CreER mice. In vitro experiments on cells from the mice were contacted with tamoxifen to induce expression of the Cre recombinase, and the results, shown in FIG. 13, indicate successful recombination and expression of the transgene.

[7] = 10 mg/kg ip, six days later, treated animals
[8] = immunohistochemistry after AP20187 administration

FKBPs with a single amino acid substitution: Phe36Val, sequence (P62942 2-108 F37V limits assumed): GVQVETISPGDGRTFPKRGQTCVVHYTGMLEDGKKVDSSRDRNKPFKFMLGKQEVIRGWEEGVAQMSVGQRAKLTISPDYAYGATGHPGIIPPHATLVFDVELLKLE
native FKBPs, sequence (P62942 whole entry): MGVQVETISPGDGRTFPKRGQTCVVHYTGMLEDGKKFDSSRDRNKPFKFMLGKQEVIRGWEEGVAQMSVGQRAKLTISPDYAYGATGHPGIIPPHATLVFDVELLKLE

| Structure (SMILES) | binding to FKBPs with Phe36Val substitution [1] | binding to the native FKBPs (native FKBPs) | number of dying cells and decrease in cell viability, co-transfected group compared to original plasmid transfection group [2] | decrease in the amplitude of the auditory brainstem response (ABR) (auditory hair cells; 10 mg/kg ip, analyzed six days later, compared with same-animal measurements before treatment) | inner hair cells lost after drug treatment (auditory hair cells; 10 mg/kg ip, six days later) | ISO-DP (threshold required to obtain a given level of response) (auditory hair cells; [7]) | distortion product otoacoustic emissions (DPOAE) (auditory hair cells; [7]) | changes in the spiral ganglion (auditory hair cells; [8]) | inner hair cells lost, as judged by Pv3 staining (auditory hair cells; [8]) | outer hair cells lost, as judged by Pv3 staining (auditory hair cells; [8]) | blood glucose levels in glucose tolerance test (GTT) ([3]; 30 minutes after a glucose challenge, tail vein blood) | glucose control by intraperitoneal glucose tolerance testing (IPGTT) ([3]; IP injection, Ins-Cre double transgenic animals, more pronounced in females than in males) | cell viability by MTT assay [4] | inner hair cell loss [5] | outer hair cell loss [5] | recombination of the transgene (PCR product on gel) [6] |
| --- | --- | --- | --- | --- | --- | --- | --- | --- | --- | --- | --- | --- | --- | --- | --- | --- |
| CC[C@H](C(=O)N1CCCC[C@H]1C(=O)O[C@H](CCc1ccc(OC)c(OC)c1)c1cccc(OCC(=O)NCC(CNC(=O)COc2cccc([C@@H](CCc3ccc(OC)c(OC)c3)OC(=O)[C@@H]3CCCCN3C(=O)[C@@H](CC)c3cc(OC)c(OC)c(OC)c3)c2)CN(C)C)c1)c1cc(OC)c(OC)c(OC)c1 [AP20187] | bind with high affinity | do not bind | almost same | 60% | 37.8% | significantly increased | significantly decreased | No remarkable changes | 35˜40% | ~15% | significant increased | partial loss of glucose control | significantly reduced | 38.8% | 32.4% |  |
| CC/C(=C(\c1ccccc1)c1ccc(OCCN(C)C)cc1)c1ccccc1 [tamoxifen] |  |  |  |  |  |  |  |  |  |  |  |  |  |  |  | recombined product at 200 bp is present |
